# Reference: patent publication US11999697B2, “Methods and compositions for inhibition of dihydroorotate dehydrogenase” (OHIO STATE INNOVATION FOUNDATION, priority 2018, dated 2024)
# Like-named read-outs stand apart in the source and are kept apart here.
# Tests used:
# [1] = tested on: IDH2-R140Q/Flt3-ITD spleen cells (murine AML); experiment: IDH2-R140Q/Flt3-ITD adoptive transfer model; type: in vivo, NCG mice
# Description: Leukemic cells derived from a spontaneous murine model of Idh2/Flt3 AML, as reported by Shih et al (Cancer Discov. 7(5):494-505), were engrafted via adoptive transfer to generate an aggressive model of AML suitable for testing of therapeutic agents. Briefly, 6-8 week old mice harboring a heterozygous internal tandem duplication of FMS-like tyrosine kinase 3 (Flt3-ITD), a heterozygous point mutation of isocitrate dehydrogenase 2 (Idh2-R140Q) preceeded by a loxP flanked STOP codon, and Cre recombinase under the MX dynamin like GTPase 1 (Mx1) promoter were injected i.p. with polyinosinic:polycytidylic acid (poly(I:C)), activating Cre recombinase and inducing hematopoietic-specific expression of the Idh2-R140Q mutation. Spleen cells from these mice were collected after the development of lethal AML (defined by study removal criteria), typically 8-14 months post-poly(I:C) injection. 1×10^5 spleen cells from a single leukemic donor were engrafted by tail vein injection into 6 week old immune deficient NOD-Prkdc^em26Cd52//2rg^em26Cd22/NjuCrl mice (NCG; Charles River). At one week post-engraftment, animals were randomized to vehicle (5% EtOH, 10% Kolliphor EL, in PBS), enasidenib (100 mg/kg), and HOSU-3 (50 mg/kg) treatment arms and dosed by daily oral gavage. Personnel responsible for animal monitoring, dosing, and decisions regarding euthanasia were blinded to treatment arms. Survival was assessed using Kaplan-Meier analysis and p-values were determined using the log-rank test and adjusted using Holm's method.
# MOLM-13 = experiment: MTS cell proliferation assay, MOLM-13; type: cell-based; details: Homo sapiens, 96 hours
# Experimental: (§1) Triplicate wells were set up for each condition.
# (§2) The assays were carried out in a blinded fashion.
# primary human AML cells = experiment: MTS assay in primary AML cells on HS5 stromal cells; type: cell-based; details: 96 hours
# Experimental: as §1
# Cpd3 efficacy was assessed in primary AML samples. Due to the poor in vitro viability of primary cells, these assays were performed in the presence of a support layer of human bone marrow stromal cells (HS5). Cells were treated with Cpd3 or BQR for 96 hours, followed by viability using an MTS assay. FIGS. 2A-2B show representative data for proliferation of primary human AML cells in the presence of a representative disclosed compound, Cpd3, compared to a reference compound, brequinar (BQR), using a MTS cell proliferation assay as described herein below. Briefly, primary AML cells were cultured in the presence human bone marrow stromal cells, and were treated with vehicle (DMSO), or varying doses of Cpd3 or brequinar sodium (BQR) for 96 hours. Cell growth was determined at 96 hours relative to the vehicle (DMSO) control using an MTS assay (N=6 primary AML samples). […] The IC50 values determined were variable, with an […] of about 0.2 μM in some samples. However, in other primary cell samples an IC50 could not be determined (FIG. 2A).
# THP1 = experiment: MTS cell proliferation assay, THP1; type: cell-based; details: Homo sapiens, THP-1, 96 hours
# Experimental: as §1, §2
# MV4-11 = experiment: MTS cell proliferation assay, MV4-11; type: cell-based; details: for IC50: Homo sapiens, MV4-11, MTS
# [2] = Pharmacokinetic study, single dose by IV, IP, PO; type: in vivo, wild type B6 mice; details: 10 mg/kg single dose; for AUC(0-t) / Tmax / bioavailability / half-life: B6, mouse, plasma; for Cmax: B6, mouse plasma
# Description: LC-MS/MS Assay Materials: Acetonitrile and methanol were LC-MS grade (Fisher Scientific (Fair Lawn, N.J., USA). Other chemicals were as follows: formic Acid (98%, v/v in water; Fisher Scientific, Fair Lawn, N.J., USA); ammonium acetate (Sigma Aldrich Inc.); water: DDH2O obtained from a Millipore water system; and brequinar was obtained from Sigma. (>99% purity). Solvent A: 0.1% formic acid in water. Solvent B: 0.1% Formic Acid in methanol and acetonitrile. Internal Standard (“IS”) precipitation solution was 150 ng/ml internal standards in acetonitrile: water (3:1, v/v).
# Sample preparation: To 10 μL plasma sample was added 100 μL of working IS solution and 20 μL MeOH. Samples were then vortexed for 30 seconds, followed by centrifugation (Eppendorf 5415 R centrifuge) at 10,000 rpm for 8 minutes at 4° C. Supernatant of each sample was transferred into an autosampler vial and sealed with rubber/Teflon crimp cap. Sample volume that was injected onto HPLC was 5 μL. The calibrations samples were prepared at a test compound concentration of 1000, 500, 250, 100, 50, 10, 5 ng/mL in mouse plasma. The quality control samples were as follows: QC1=750 ng/mL, OC2=75 ng/mL, QC3=25 ng/mL, LLOQ=5 ng/mL.
# HPLC Parameters: Accucore Vanquish C18 column (100×2.1 mm, dp=1.5 μm) used in a Vanquish UHPLC system, using a XBridge® BEH C18, 5-μm guard column. Mobile phase: gradient as provided below in Table 8 below. Column temperature: 40° C.±5° C.; Autosampler temperature: 10° C.±5° C. Flow rate: 0.4 ml/min. run time: 5.0 min.
# The mass spectrometer used was a TSQ Quantiva (Thermo Fisher Scientific).
# Briefly, wild type B6 mice were injected with a single dose (10 mg/kg) of Cpd3 by three different injection routes: oral gavage (PO), intravenous (IV) and intraperitoneal (IP) (N=4 per route). The vehicle used was 15% ethanol, 30% polyethylene glycol (PEG), and this same vehicle was used for each delivery route. Cpd3 was prepared as a 2.5 mg/mL concentration and delivered at 10 mg/kg (volume delivered in microliters was 4 times the weight of the mouse in grams). Blood plasma was sampled at time zero (0) and […] additional time points (15, 30 and 60 minutes, and 2, 6 and 24 hours), and the level of Cpd3 determined in mouse plasma by LC-MS/MS assay as described above. The data were used to calculate Cmax, Clast, Tmax, T1/2, AUC, and bioavailability for Cpd3 as appropriate for the route of administration.
compound,measurement,setting,value
"CCOc1ccc(-c2ccc(-c3cc(C(=O)O)c4cc(F)ccc4n3)cc2)cc1 [Cpd3, 2-(4′-ethoxy-[1,1′-biphenyl]-4-yl)-6-fluoroquinoline-4-carboxylic acid]",survival compared to vehicle and enasidinib treatment groups,[1]; 50 mg/kg once daily,significant improvement in survival
same,Median survival,"[1]; daily oral gavage, Cpd3 50 mg/kg, enasidenib 100 mg/kg",42 days
same,IC50,MOLM-13,0.4 µM
same,IC60 in primary AML samples,"primary human AML cells; HS5 stromal support, some samples",about 0.2 μM
same,growth of primary AML cells,primary human AML cells; N=6 primary AML samples,decreases growth of primary AML cells comparable to the reference compound
same,IC50,THP1,1.1 µM
same,rescue of cytotoxic effects by uridine,"MV4-11; 0.25 or 0.5 μM compound, uridine 0 to 200 μM, 96 hours",rescued by growth in the presence of uridine
same,IC50,"MV4-11; 96 hour, Table 7, read-out: 96 hour IC50 (nM) in MV-411 cell line",~500 nM
same,IC50,"MV4-11; 96 hours, read-out: IC50 (μM) at 96 hours, MV4-11",670 nM
same,AUC(0-t),[2]; IP,120 ± 228 µg·h/mL
same,Tmax,[2]; IP,0.31 ± 0.13 h
same,bioavailability,[2]; IP,89%
same,half-life,[2]; IP,2.2 ± 0.11 h
same,AUC(0-t),[2]; IV,134 ± 217 µg·h/mL
same,half-life,[2]; IV,2.3 ± 0.19 h
same,AUC(0-t),[2]; PO,425 ± 163 µg·h/mL
same,Tmax,[2]; PO,0.5 h
same,bioavailability,[2]; PO,32%
same,half-life,[2]; PO,5.6 ± 1.95 h
same,Cmax,[2]; IP,40200 ± 9300 ng/mL
same,Cmax,[2]; IV,36400 ± 14300 ng/mL
same,Cmax,[2]; PO,12200 ± 4300 ng/mL
same,Clast,[2]; IP,16 ± 7 ng/mL
same,Clast,[2]; IV,22 ± 16 ng/mL
same,Clast,[2]; PO,310 ± 180 ng/mL
